Data from patent US11834517B2, “Branched peptides for enzymatic assembly and mitochondria drug delivery” (BRANDEIS UNIVERSITY, priority 2017, dated 2023).
Peptide text beside a SMILES is read from it. * marks the point of attachment. X2 = O=C(Cc1ccc2ccccc2c1)N[C@H](Cc1ccccc1)C(=O)N[C@H](Cc1ccccc1)C(=O)N[C@H](CCCCN*)C(=O)NCCNc1ccc([N+](=O)[O-])c2nonc12; X3 = O=C(Cc1ccc2ccccc2c1)N[C@@H](Cc1ccccc1)C(=O)N[C@@H](Cc1ccccc1)C(=O)N[C@@H](CCCCN*)C(=O)N[C@@H](Cc1ccc(O)cc1)C(=O)O; X1 = O=C(Cc1ccc2ccccc2c1)N[C@H](Cc1ccccc1)C(=O)N[C@H](Cc1ccccc1)C(=O)N[C@H](CCCCN*)C(=O)N[C@H](Cc1ccc(O)cc1)C(=O)O

Legend:
HeLa cells [1] = test: Cell viability / cytotoxicity (MTT) assay, HeLa; assay type: cell-based
HeLa cells [2] = test: Cell viability after GFP-TP53 plasmid transfection, HeLa; assay type: cell-based, human; settings: single agent: free GFP-TP53 plasmid (5 μg/mL) or Mito-Flag (200 μM), 3rd day
Protocol: (§1) FIGS. 24A-G show how perimitochondrial ENS causes mitochondrial transgene expression to induce mitophagy or apoptosis. FIG. 24A is a Western blot analysis of FUNDC1 and LC3B levels in the mitochondria fraction and cytosolic fraction, respectively, of HeLa cells incubated with conditions of interest. VDAC1 serves as mitochondria protein loading control. FUNDC1 plasmid: 5 μg/mL, Mito-Flag: 200 μM, Time: 2 days. FIG. 24B is a panel of fluorescent images showing that Mito-Flag perimitochondrial ENS delivering FUNDC1 gene into mitochondria to induce mitochondrial morphology changes within 2 days. FIG. 24C is a panel of fluorescent images showing that the detection of mitophagy via immunofluorescent staining of autophagy marker, LC3 (2nd day). FIG. 24D is a panel of fluorescent images of HeLa cells incubated with free GFP-TP53 plasmid and the plasmid mixed with Mito-Flag (200 μM, 24 h). FIG. 24E is a graph illustrating cell viability of HeLa, Saos-2, and HS-5 cells incubated with free GFP-TP53 plasmid (5 μg/mL), Mito-Flag (200 μM), and the plasmid (5 μg/mL) mixed with Mito-Flag (200 μM, 3rd day). Data are presented as mean±standard deviation. FIG. 24F is a panel of fluorescent images showing an apoptosis analysis on HeLa and HS-5 cells. […]

Saos-2 cell = test: Cell viability after GFP-TP53 plasmid transfection, Saos-2; assay type: cell-based, human; settings: Saos-2, single agent: free GFP-TP53 plasmid or Mito-Flag
Protocol: as §1

HS-5 cells = test: Cell viability after GFP-TP53 plasmid transfection, HS-5; assay type: cell-based, human; settings: HS-5, GFP-TP53 plasmid (5 μg/mL) mixed with Mito-Flag (200 μM), 3rd day
Protocol: as §1

HeLa cells [3] = test: Uptake and mitochondrial localization of NBD-Mito-Flag in HeLa cells in the presence of inhibitors; assay type: cell-based, human; settings: NBD-Mito-Flag 200 μM; for mitochondrial localization of NBD-Mito-Flag: HeLa, with inhibitor (chloroquine 10 μM; erastin; Ndz 10 μM, 1 h pretreatment; FCCP pretreatment); for uptake of NBD-Mito-Flag (intracellular fluorescence): 2 h, with endocytosis inhibitor (CPZ 5 μM)
Protocol: FIG. 26B is a panel of confocal fluorescence images of HeLa cells incubated with NBD-Mito-Flag (200 μM) and chloroquine (10 μM). […] FIG. 26D is a panel of TEM images of mitochondria isolated from HeLa, HEK293 and HS-5 cells incubated with 200 μM Mito-Flag for 24 h. […] FIG. 26E and FIG. 26F are fluorescent images of NBD-Mito-Flag and RFP-LAMP1 in ENTK-knockdown HeLa cells. […] FIG. 26G-H are fluorescent images of the HeLa cells incubated with NBD-Mito-Flag (200 μM, 2 h) (FIG. 26G) or the mixture of virus (RFP-LAMP1) and Mito-Flag (200 μM, 24 h) (FIG. 26H) in the presence of erastin of different concentrations. […] FIG. 26I is a panel of fluorescent images of HeLa cells incubated with NBD-Mito-Flag (200 μM, 2 h) after the pretreatment by Ndz (10 μM, 1 h).
Intracellular Fluorescence Quantification: Cells were seeded in petri dishes and incubated in standard condition for 12 h before experiment. After being treated by the condition of interest, all cells were washed by PBS (3 time for 5 min). After the washing step, cells were detached from the dishes using trypsin. The trypsin was removed by centrifuge and washing with PBS. The cell suspensions (in PBS) were diluted to 10^5 cell/mL. 100 μL diluted cell suspension was added in a 96-well plate (at least 5 wells per sample). The intracellular fluorescence intensity was immediately determined using a DTX 880 Multimode Detector (Beckman Coulter Inc.). The experiments were repeated, and the intracellular fluorescence intensity was averaged (n>3).

MT-CO1-KO cancer cells = test: Sensitivity of MT-CO1-KO cancer cells to chemotherapeutic agents; assay type: cell-based, human; settings: MT-CO1 knocked out via Mito-Flag and CRISPR-MT-CO1 plasmid

| Compound | cytotoxicity of branched peptide alone (HeLa cells [1]) | cytotoxicity of branched peptide alone (U87MG cells) | mitochondrial localization of NBD-Mito-Flag (HeLa cells [3]) | other results |
| --- | --- | --- | --- | --- |
| NCCCC[C@H](NC(=O)[C@H](CC(=O)O)NC(=O)[C@H](CC(=O)O)NC(=O)[C@H](CC(=O)O)NC(=O)[C@H](CC(=O)O)NC(=O)[C@H](CCCCN)NC(=O)[C@H](Cc1ccc(O)cc1)NC(=O)[C@@H](N)CC(=O)O)C(=O)NCC(=O)NCCCC[C@@H](NC(=O)[C@@H](Cc1ccccc1)NC(=O)[C@@H](Cc1ccccc1)NC(=O)Cc1ccc2ccccc2c1)C(=O)NCCNc1ccc([N+](=O)[O-])c2nonc12 [D-1 ? FLAG] (H-DYKDDDDKG-X2) | little cytotoxicity | little cytotoxicity |  |  |
| NCCCC[C@H](NC(=O)[C@H](CC(=O)O)NC(=O)[C@H](CC(=O)O)NC(=O)[C@H](CC(=O)O)NC(=O)[C@H](CC(=O)O)NC(=O)[C@H](CCCCN)NC(=O)[C@H](Cc1ccc(O)cc1)NC(=O)[C@@H](N)CC(=O)O)C(=O)NCC(=O)NCCCC[C@@H](NC(=O)[C@@H](Cc1ccccc1)NC(=O)[C@@H](Cc1ccccc1)NC(=O)Cc1ccc2ccccc2c1)C(=O)N[C@H](Cc1ccc(O)cc1)C(=O)O [D-2 ? FLAG] (H-DYKDDDDKG-X1) | minimal cytotoxicity | minimal cytotoxicity |  | cell viability (HeLa cells [2]): hardly causes cell death; cell viability (Saos-2 cell): innoxious; cell viability (HS-5 cells): neither free GFP-TP53 plasmid nor the mixture of Mito-Flag and GFP-TP53 plasmid impairs the viability of HS-5 cells |
| N#CC(C#N)=NNc1ccc(OC(F)(F)F)cc1 [FCCP, p-trifluoromethoxy carbonylcyanide phenylhydrazone] |  |  | diminishes the mitochondria-specific localization |  |
| NCCCC[C@H](NC(=O)[C@H](CC(=O)O)NC(=O)[C@H](CC(=O)O)NC(=O)[C@H](CC(=O)O)NC(=O)[C@H](CC(=O)O)NC(=O)[C@H](CCCCN)NC(=O)[C@H](Cc1ccc(O)cc1)NC(=O)[C@@H](N)CC(=O)O)C(=O)NCC(=O)NCCCC[C@H](NC(=O)[C@H](Cc1ccccc1)NC(=O)[C@H](Cc1ccccc1)NC(=O)Cc1ccc2ccccc2c1)C(=O)N[C@@H](Cc1ccc(O)cc1)C(=O)O [L-2 ? FLAG] (H-DYKDDDDKG-X3) | minimal cytotoxicity | minimal cytotoxicity |  |  |
| CCN(CC)CCCC(C)Nc1ccnc2cc(Cl)ccc12 (stereo not drawn) [chloroquine] |  |  | significantly reduced mitochondrial localization |  |
| CN(C)CCCN1c2ccccc2Sc2ccc(Cl)cc21 [chlorpromazine] |  |  |  | uptake of NBD-Mito-Flag (intracellular fluorescence) (HeLa cells [3]): significantly decreases the intracellular fluorescence |
| N.N.[Cl][Pt][Cl] [cisplatin] |  |  |  | sensitivity of MT-CO1-KO cancer cells versus wild type (MT-CO1-KO cancer cells): more sensitive |
| COC(=O)Nc1nc2ccc(C(=O)c3cccs3)cc2[nH]1 [nocodazole] |  |  | weakened mitochondrial fluorescence |  |
| M-β-CD |  |  |  | uptake of NBD-Mito-Flag (intracellular fluorescence) (HeLa cells [3]): hardly affects the uptake |
